According to US5736565A, “Therapeutic compounds suitable for the treatment of diseases connected with glutathione deficiency, process for their preparation, and pharmaceutical compositions containing same” (Prospa B.V., priority 1992, dated 1998):
Values joined by “and” are separate entries in the source; they are usually repeats but may differ in a detail not shown here. Equal values may be shown once. Read-outs that look alike come from different tables or passages of the source. Peptide text beside a SMILES is read from it.

Assays:
[1] = test system: serum GPT; experiment: Test No. 4: dichloropropane (DCP) intoxication in vivo, serum GPT; set-up: species or system rat
Procedure: A test was carried out in vivo on four groups of four rats each, using, as a toxic substance, dichloropropane (DCP), the main constituent of several solvents. DCP is noxious both by ingestion and inhalation and has a notable toxicity to the liver, mediated by an almost total depletion of thiol groups, including those of GSH.
The experimental model involves the study of the effect of DCP toxicity in the rat, in respect of glutathione (GSH) concentration in the main target tissue: the liver.
Tests were carried out on four groups of rats. The first group of animals was administered 2 ml DCP/kg dissolved in oil (40% v/v) per os. Twenty-four hours after DCP administration, blood samples were taken for SGPT measurement, while the animals were sacrificed; small portions of liver were then excised and immediately deproteinized by homogenization in 6% PCA. The chromatographic analyses of GSH and GSSG (oxidized glutathione) were performed.
The second group of animals was treated with the test drug (600 mg/kg i.p.) two hours after DCP administration. The third and fourth groups were treated with N-acetyl-cysteine (NAC) (250 mg/kg i.p.) and, respectively, with glutathione (Tationil^R) (600 mg/kg i.p.).

[2] = test system: glutathione (GSH) in hepatocytes; experiment: Tests in vitro: glutathione content of isolated rat hepatocytes; format: cell-based; settings: for activity at 250 µM / activity at 500 µM / activity at 1000 µM / activity at 2500 µM / activity at 5000 µM: read-out: Glutathione concentrations; for activity at 1000 µM: DEM + 1.0 mM; for activity at 5000 µM: DEM + 5.0 mM
Procedure: The experimental model envisages the isolation of hepatic parenchymal cells of rats following perfusion, with collagenase, of the isolated organ. Prior to each test, hepatocytes vitality was quantified by Tripan Blue […]. Only the cells with a vitality greater than 90% were utilized. Hepatocytes were resuspended, at a concentration of 10^6 cells/ml, in a saline medium (Krebs Heinseleit) at ph 7.4, and then placed into rotating flasks in the presence of O2 (95%) and CO2 (5%), at 37° C. Cells keep vital for 5-6 hours at least.
[…] The cells were then washed for 30 min. and incubated with various concentrations of the test substance (from 0.25 to 5 mM).
By this experimental model it is possible to test the effect of the substance by evaluating the hepatic functionality determined by measurements of the vitality (Tables Nos. 3, 4, and 5) and of glutathione content (Tables 6, 7, and 8).
In the Tables 3-8 herein below reported, the controls are represented by normal hepatocytes, not treated either with DEM or with compound (I).

[3] = Rattus norvegicus, Hepatocyte, 0 h, 0 time
[4] = Rattus norvegicus, Hepatocyte, 0.5 h, 30 min
[5] = Rattus norvegicus, Hepatocyte, 1 h, 1 hr
[6] = Rattus norvegicus, Hepatocyte, 2 h, 2 hrs
[7] = Rattus norvegicus, Hepatocyte, 4 h, 4 hrs

SMILES: CC(=O)SC[C@H](NC(=O)[C@@H]1CCC(=O)N1)C(=O)O [PSC, 2-(S)-(2-pyrrolidone-5-(S)-carbonyl amido)-3-acetylmercapto propionic acid] (HELM PEPTIDE1{[Glp].C}|PEPTIDE2{[ac]}$PEPTIDE1,PEPTIDE2,2:R3-1:R2$$$V2.0)
- GPT, average values ([1]; DCP + 600 mg/kg i.p.): 22.0 U/1
- GPT, individual animals ([1]; DCP + 600 mg/kg i.p., animals 1-4, listed as (I) (R = CH3), 600 mg/kg): 24.4 U/1 and 26.4 U/1 and 17.4 U/1 and 20.1 U/1
- GPT ([1]; DCP + (I)(R=CH3)): 22.0 U/l
- Serum GPT (in words) ([1]; DCP-treated rats): maintained within standard limits
- increase in the GSH content ([2]; DEM-pretreated hepatocytes, 2.5 and 5 mM): greater than 170%
- activity at 250 µM ([2]; Rattus norvegicus, Hepatocyte, 0 h, DEM + 0.25 mM, 0 time): 28%
- activity at 500 µM ([2]; Rattus norvegicus, Hepatocyte, 0 h, DEM + 0.50 mM, 0 time): 28.4%
- activity at 1000 µM [2, 3]: 25.8%
- activity at 2500 µM ([2]; Rattus norvegicus, Hepatocyte, 0 h, DEM + 2.5 mM, 0 time): 23.9%
- activity at 5000 µM [2, 3]: 26.6%
- activity at 250 µM ([2]; Rattus norvegicus, Hepatocyte, 0 h, no DEM, 0.25 mM, 0 time): 104%
- activity at 500 µM ([2]; Rattus norvegicus, Hepatocyte, 0 h, no DEM, 0.50 mM, 0 time): 107%
- activity at 2500 µM ([2]; Rattus norvegicus, Hepatocyte, 0 h, no DEM, 2.5 mM, 0 time): 99.5%
- activity at 250 µM ([2]; Rattus norvegicus, Hepatocyte, 0.5 h, DEM + 0.25 mM, 30 min): 42.8%
- activity at 500 µM ([2]; Rattus norvegicus, Hepatocyte, 0.5 h, DEM + 0.50 mM, 30 min): 45.7%
- activity at 1000 µM [2, 4]: 52.7%
- activity at 2500 µM ([2]; Rattus norvegicus, Hepatocyte, 0.5 h, DEM + 2.5 mM, 30 min): 61.1%
- activity at 5000 µM [2, 4]: 69.4%
- activity at 250 µM ([2]; Rattus norvegicus, Hepatocyte, 0.5 h, no DEM, 0.25 mM, 30 min): 117%
- activity at 500 µM ([2]; Rattus norvegicus, Hepatocyte, 0.5 h, no DEM, 0.50 mM, 30 min): 144%
- activity at 2500 µM ([2]; Rattus norvegicus, Hepatocyte, 0.5 h, no DEM, 2.5 mM, 30 min): 158%
- activity at 250 µM ([2]; Rattus norvegicus, Hepatocyte, 1 h, DEM + 0.25 mM, 1 hr): 54.8%
- activity at 500 µM ([2]; Rattus norvegicus, Hepatocyte, 1 h, DEM + 0.50 mM, 1 hr): 74.2%
- activity at 1000 µM [2, 5]: 71%
- activity at 2500 µM ([2]; Rattus norvegicus, Hepatocyte, 1 h, DEM + 2.5 mM, 1 hr): 89%
- activity at 5000 µM [2, 5]: 92%
- activity at 250 µM ([2]; Rattus norvegicus, Hepatocyte, 1 h, no DEM, 0.25 mM, 1 hr): 134%
- activity at 500 µM ([2]; Rattus norvegicus, Hepatocyte, 1 h, no DEM, 0.50 mM, 1 hr): 155%
- activity at 2500 µM ([2]; Rattus norvegicus, Hepatocyte, 1 h, no DEM, 2.5 mM, 1 hr): 182%
- activity at 250 µM ([2]; Rattus norvegicus, Hepatocyte, 2 h, DEM + 0.25 mM, 2 hrs): 81.2%
- activity at 500 µM ([2]; Rattus norvegicus, Hepatocyte, 2 h, DEM + 0.50 mM, 2 hrs): 103%
- activity at 1000 µM [2, 6]: 96.7%
- activity at 2500 µM ([2]; Rattus norvegicus, Hepatocyte, 2 h, DEM + 2.5 mM, 2 hrs): 119%
- activity at 5000 µM [2, 6]: 119%
- activity at 250 µM ([2]; Rattus norvegicus, Hepatocyte, 2 h, no DEM, 0.25 mM, 2 hrs): 142%
- activity at 500 µM ([2]; Rattus norvegicus, Hepatocyte, 2 h, no DEM, 0.50 mM, 2 hrs): 159%
- activity at 2500 µM ([2]; Rattus norvegicus, Hepatocyte, 2 h, no DEM, 2.5 mM, 2 hrs): 191%
- activity at 250 µM ([2]; Rattus norvegicus, Hepatocyte, 4 h, DEM + 0.25 mM, 4 hrs): 83%
- activity at 500 µM ([2]; Rattus norvegicus, Hepatocyte, 4 h, DEM + 0.50 mM, 4 hrs): 138%
- activity at 1000 µM [2, 7]: 119%
- activity at 2500 µM ([2]; Rattus norvegicus, Hepatocyte, 4 h, DEM + 2.5 mM, 4 hrs): 173%
- activity at 5000 µM [2, 7]: 191%
- activity at 250 µM ([2]; Rattus norvegicus, Hepatocyte, 4 h, no DEM, 0.25 mM, 4 hrs): 146%
- activity at 500 µM ([2]; Rattus norvegicus, Hepatocyte, 4 h, no DEM, 0.50 mM, 4 hrs): 207%
- activity at 2500 µM ([2]; Rattus norvegicus, Hepatocyte, 4 h, no DEM, 2.5 mM, 4 hrs): 211%
- activation at 250 µM ([2]; Rattus norvegicus, Hepatocyte, DEM-pretreated hepatocytes, 0.25 mM, 4 hours, read-out: increase in GSH values): ~80%
- activation at 500 µM ([2]; Rattus norvegicus, Hepatocyte, DEM-pretreated hepatocytes, 0.5 mM, 4 hours, read-out: increase in GSH values): 130 to 140%
- activation at 1000 µM ([2]; Rattus norvegicus, Hepatocyte, DEM-pretreated hepatocytes, 1 mM, read-out: increase in the GSH content): ~120%
- restoring thiol groups and in particular GSH (in words) ([2]; in vitro): greatly effective in restoring thiol groups and in particular GSH
- permeability of the hepatocyte membrane (in words) ([2]; normal hepatocytes): clearly indicates the permeability of the hepatocyte membrane
- increase in basal GSH at 2.5 mM compared with 0.5 mM (in words) ([2]; normal hepatocytes, 4 hours): superimposable to that caused by concentrations five times lower (0.5 mM)
- increase in GSH basal values ([2]; normal hepatocytes, concentrations from 0.5 mM, after 4 hrs, in respect of controls): greater than 180%
